Source: patent US4272437A, “Antibacterial agents, and 4-thio azetidinone intermediates” (priority 1979, dated 1981)
≈ marks a conversion by molar mass, not a printed value. Read-outs that look alike come from different tables or passages of the source.

What was measured:
[1] = tested on: Gram-negative and Gram-positive organisms; details: literature; cited from earlier work
[2] = tested on: β-lactamases; details: literature; cited from earlier work
[3] = in vitro and in vivo, literature; cited from earlier work
[4] = tested on: Str. pneumoniae A-9585; experiment: MIC, tube dilution, Streptococcus pneumoniae A9585; format: cell-based; details: Streptococcus pneumoniae, A9585, Str. pneumoniae A9585; overnight 37° C., Nutrient Broth; read-out: Minimum Inhibitory Concentration (M.I.C.)
Source text: (§1) Representative compounds of the present invention were subjected to in vitro antibiotic screening against a variety of microorganisms.

[5] = tested on: Str. pyogenes A-9604; experiment: MIC, tube dilution, Streptococcus pyogenes A9604; format: cell-based; details: Streptococcus pyogenes, A9604, Str. pyogenes A9604; overnight 37° C., Nutrient Broth; read-out: Minimum Inhibitory Concentration (M.I.C.)
Source text: as §1

[6] = tested on: Staph. aureus A-9537; experiment: MIC, tube dilution, Staphylococcus aureus A9537; format: cell-based; details: Staphylococcus aureus, A9537, Staph. aureus A9537; overnight 37° C., Nutrient Broth; read-out: Minimum Inhibitory Concentration (M.I.C.)
Source text: as §1

[7] = tested on: Staph. aureus A-9537 and 50% serum; experiment: MIC, tube dilution, Staph. aureus A9537 + 50% serum; format: cell-based, Staphylococcus aureus; details: Staphylococcus aureus, overnight 37° C., read-out: Minimum Inhibitory Concentration (M.I.C.)
Source text: as §1

[8] = tested on: Staph. aureus (Pen-Res) A-9606; experiment: MIC, tube dilution, Staphylococcus aureus A9606 (Pen-Res); format: cell-based; details: Staphylococcus aureus, Staph. aureus A9606 (Pen-Res); overnight 37° C.; read-out: Minimum Inhibitory Concentration (M.I.C.)
Source text: as §1

[9] = tested on: Staph. aureus (Meth-Res) A-15097; experiment: MIC, tube dilution, Staphylococcus aureus A15097 (Meth-Res); format: cell-based; details: Staphylococcus aureus, overnight 37° C.
Source text: as §1

[10] = tested on: Str. faecalis A-20688; experiment: MIC, tube dilution, Streptococcus faecalis A20688; format: cell-based; details: Enterococcus faecalis, A20688, Str. faecalis A20688; overnight 37° C.; read-out: Minimum Inhibitory Concentration (M.I.C.)
Source text: as §1

[11] = tested on: E. coli A-15119; experiment: MIC, tube dilution, Escherichia coli A15119; format: cell-based; details: Escherichia coli, A15119, E. coli A15119; overnight 37° C.; read-out: Minimum Inhibitory Concentration (M.I.C.)
Source text: as §1

[12] = tested on: E. coli A-20341-1; experiment: MIC, tube dilution, Escherichia coli A20341-1; format: cell-based
Source text: as §1

[13] = tested on: K. pneumoniae A-15130; experiment: MIC, tube dilution, Klebsiella pneumoniae A15130; format: cell-based; details: Klebsiella pneumoniae, A15130, K. pneumoniae A15130; overnight 37° C.; read-out: Minimum Inhibitory Concentration (M.I.C.)
Source text: as §1

[14] = tested on: Klebsiella species A20468; experiment: MIC, tube dilution, Klebsiella species A20468; format: cell-based; details: Klebsiella species (K. pneumoniae) A20468; overnight 37° C.; read-out: Minimum Inhibitory Concentration (M.I.C.)
Source text: as §1

[15] = tested on: Pr. mirabilis A-9900; experiment: MIC, tube dilution, Proteus mirabilis A9900; format: cell-based; details: Proteus mirabilis, A9900, Proteus mirabilis A9900; overnight 37° C.; read-out: Minimum Inhibitory Concentration (M.I.C.)
Source text: as §1

[16] = tested on: Pr. morganii A-15153; experiment: MIC, tube dilution, Proteus morganii A15153; format: cell-based; details: Morganella morganii, A15153, Proteus morganii A15153; overnight 37° C.; read-out: Minimum Inhibitory Concentration (M.I.C.)
Source text: as §1

[17] = tested on: Ser. marcescens A-20019; experiment: MIC, tube dilution, Serratia marcescens A20019; format: cell-based; details: Serratia marcescens, A20019, Serratia marcescens A20019; overnight 37° C.; read-out: Minimum Inhibitory Concentration (M.I.C.)
Source text: as §1

[18] = tested on: Ent. cloacae A-9659; experiment: MIC, tube dilution, Enterobacter cloacae A9659; format: cell-based; details: Enterobacter cloacae, A9659, Enterobacter cloacae A9659; overnight 37° C.; read-out: Minimum Inhibitory Concentration (M.I.C.)
Source text: as §1

[19] = tested on: Ent. cloacae A-9656; experiment: MIC, tube dilution, Enterobacter cloacae A9656; format: cell-based; details: overnight 37° C., read-out: Minimum Inhibitory Concentration (M.I.C.)
Source text: as §1

[20] = tested on: Ps. aeruginosa A-9843A; experiment: MIC, tube dilution, Pseudomonas aeruginosa A9843A; format: cell-based; details: Pseudomonas aeruginosa, A9843A, read-out: Minimum Inhibitory Concentration (M.I.C.), Pseudomonas aeruginosa A9843A; overnight 37° C.
Source text: as §1

[21] = tested on: Ps. aeruginosa A-21213; experiment: MIC, tube dilution, Pseudomonas aeruginosa A21213; format: cell-based; details: overnight 37° C., read-out: Minimum Inhibitory Concentration (M.I.C.)
Source text: as §1

[22] = tested on: Proteus rettgeri A21203; experiment: MIC, tube dilution, Proteus rettgeri A21203; format: cell-based; details: Providencia rettgeri, overnight 37° C., read-out: Minimum Inhibitory Concentration (M.I.C.)
Source text: as §1

[23] = tested on: Hemophilus influenzae A9833; experiment: MIC, tube dilution, Hemophilus influenzae A9833; format: cell-based; details: Haemophilus influenzae, A9833, read-out: Minimum Inhibitory Concentration (M.I.C.)
Source text: as §1

[24] = tested on: S. aureus A9537; experiment: In vivo protection of mice, lethal infection with S. aureus A9537; details: IM, 2 treatments; for ED50: Staphylococcus aureus, A9537, im, read-out: PD50
Description: (§2) Representative compounds of the present invention were also tested in vivo in mice and their PD50 (dose of compound in mg/kg required to protect 50% of the treated mice against an otherwise lethal infection of a micro-organism) values determined with respect to the test organisms shown below.

[25] = Mouse blood levels after intramuscular administration; format: in vivo; details: average of 6 mice, read-out: Mouse blood level
Description: Mouse blood levels after intramuscular administration of representative compounds of the present invention were determined and are reported in the table below.

[26] = tested on: Providencia stuartii A21205; experiment: MIC, tube dilution, Providencia stuartii (Pr. rettgeri) A21205; format: cell-based; details: Providencia stuartii, A21205, Providencia stuartii (Pr. rettgeri) A21205; overnight 37° C.; read-out: Minimum Inhibitory Concentration (M.I.C.)
Source text: as §1

[27] = tested on: S. aureus A9606; experiment: In vivo protection of mice, lethal infection with S. aureus A9606; details: Staphylococcus aureus, IM, 2 treatments, 8 × 10^8 organisms, read-out: PD50
Description: as §2

[28] = tested on: K. pneumoniae A15130; experiment: In vivo protection of mice, lethal infection with K. pneumoniae A15130; details: Klebsiella pneumoniae, IM, 2 treatments, 1.2 × 10^3 organisms, read-out: PD50
Description: as §2

[29] = tested on: S. pneumoniae A9585; experiment: In vivo protection of mice, lethal infection with S. pneumoniae A9585; details: Streptococcus pneumoniae, A9585, im, 2 treatments, read-out: PD50
Description: as §2

[30] = tested on: S. pyogenes A9604; experiment: In vivo protection of mice, lethal infection with S. pyogenes A9604; details: Streptococcus pyogenes, A9604, im, 2 treatments, read-out: PD50
Description: as §2

[31] = stability of isolated product (light, handling); format: physicochemical
[32] = tested on: Proteus vulgaris A21559; experiment: MIC, tube dilution, Proteus vulgaris A21559; format: cell-based; details: Proteus vulgaris, A21559, Proteus vulgaris A21559; overnight 37° C.; read-out: Minimum Inhibitory Concentration (M.I.C.)
Source text: as §1

[33] = Escherichia coli, A203411, E. coli A20341-1; overnight 37° C.; read-out: Minimum Inhibitory Concentration (M.I.C.)

## O=C(O)[C@H]1/C(=C/CO)O[C@@H]2CC(=O)N21 [clavulanic acid]
[1]
  antibacterial activity: low order of antibacterial activity
[2]
  β-lactamase inhibition: inhibits the action of certain β-lactamases
[3]
  enhancement of activity of penicillins and cephalosporins: enhances the in vitro and in vivo activity of some penicillins and cephalosporins

## NCCC1=C(C(=O)O)N2C(=O)CC2S1 (centres unmarked) [Example 24, 2-Aminoethylpenem-3-carboxylic Acid]
[4]
  MIC: 2 µg/mL (≈ 9.34 µM)
[5]
  MIC: 2 µg/mL (≈ 9.34 µM)
[6]
  MIC: 4 µg/mL (≈ 18.7 µM)
[7]
  MIC: 16 µg/mL
[8]
  MIC: 8 µg/mL (≈ 37.3 µM)
[9]; read-out: Minimum Inhibitory Concentration (M.I.C.), Staph. aureus A15097 (Meth-Res)
  MIC: > 125 µg/mL
[10]
  MIC: 63 µg/mL (≈ 294 µM)
[11]
  MIC: 32 µg/mL (≈ 149 µM)
[12]; Escherichia coli, A203411; E. coli A20341-1; overnight 37° C.; read-out: Minimum Inhibitory Concentration (M.I.C.)
  MIC: 125 µg/mL (≈ 583 µM)
[13]
  MIC: > 125 µg/mL
[14]
  MIC: 125 µg/mL (≈ 583 µM)
[15]
  MIC: 63 µg/mL (≈ 294 µM)
[16]
  MIC: 125 µg/mL (≈ 583 µM)
[17]
  MIC: 63 µg/mL (≈ 294 µM)
[18]
  MIC: 63 µg/mL (≈ 294 µM)
[19]; Enterobacter cloacae A9656
  MIC: 125 µg/mL (≈ 583 µM)
[20]
  MIC: 125 µg/mL (≈ 583 µM)
[21]; Pseudomonas aeruginosa A21213
  MIC: > 125 µg/mL
[22]; Proteus rettgeri A21203
  MIC: 125 µg/mL (≈ 583 µM)
[23]
  MIC: > 125 µg/mL
[24]; 1 × 10^6 organisms
  ED50: 0.63 mg/kg
[25]; 10 minutes after IM 40 mg/kg
  concentration at 10 min: 51400 ng/mL
[25]; 20 minutes after IM 40 mg/kg
  concentration at 20 min: 37100 ng/mL
[25]; 30 minutes after IM 40 mg/kg
  concentration at 0.5 h: 21800 ng/mL
[25]; 45 minutes after IM 40 mg/kg
  concentration at 0.75 h: 9400 ng/mL
[25]; 60 minutes after IM 40 mg/kg
  concentration at 1 h: 5000 ng/mL
[25]; 90 minutes after IM 40 mg/kg
  concentration at 1.5 h: < 3100 ng/mL
[25]; 120 minutes after IM 40 mg/kg
  concentration at 2 h: < 3100 ng/mL

## CC1=C(C(=O)O)N2C(=O)C[C@H]2S1 [Preparation 2,3, 2-Methylpenem-3-carboxylic Acid]
[8]
  MIC: 1 µg/mL (≈ 5.4 µM)
[10]
  MIC: 32 µg/mL (≈ 173 µM)
[12]; [33]
  MIC: 16 µg/mL (≈ 86.4 µM)
[14]
  MIC: > 125 µg/mL
[26]
  MIC: 4 µg/mL (≈ 21.6 µM)
[21]; Pseudomonas aeruginosa A21213
  MIC: > 125 µg/mL
[27]
  ED50: > 50 mg/kg
[28]
  ED50: > 400 mg/kg
[29]; 3 × 10^4 organisms
  ED50: > 12.5 mg/kg
[29]; 3.4 × 10^4 organisms
  ED50: > 50 mg/kg
[30]; 1.2 × 10^3 organisms
  ED50: > 50 mg/kg
[30]; 8 × 10^3 organisms
  ED50: > 12.5 mg/kg
[24]; 1.1 × 10^6 organisms, listed as Prep. 2,3
  PD50: 22 mg/kg/treatment
[24]; 1.1 × 10^6 organisms
  ED50: 13 mg/kg
[24]; 7.8 × 10^5 organisms
  ED50: 13 mg/kg

## CC(=O)OC[C@H]1C(=O)N2C(C(=O)O)=C(CN)S[C@H]12 (relative stereo) [cis 6-Acetoxymethyl-2-aminomethylpenem-3-carboxylic Acid]
[31]
  stability: unstable

## NC1CC1C1=C(C(=O)O)N2C(=O)CC2S1 (stereo not drawn) [Example 99, 2-(trans-2-Aminocyclopropyl)-penem-3-carboxylic Acid]
[31]
  stability: suspected to be very light sensitive
[4]
  MIC: 1 µg/mL (≈ 4.42 µM)
[5]
  MIC: 1 µg/mL (≈ 4.42 µM)
[6]
  MIC: 1 µg/mL (≈ 4.42 µM)
[7]
  MIC: 16 µg/mL
[8]
  MIC: 4 µg/mL (≈ 17.7 µM)
[9]; Staph. aureus A15097 (Meth-Res), read-out: Minimum Inhibitory Concentration (M.I.C.)
  MIC: 32 µg/mL (≈ 141 µM)
[10]
  MIC: 63 µg/mL (≈ 278 µM)
[11]
  MIC: 8 µg/mL (≈ 35.4 µM)
[12]; [33]
  MIC: 63 µg/mL (≈ 278 µM)
[13]
  MIC: 32 µg/mL (≈ 141 µM)
[14]
  MIC: > 63 µg/mL
[15]
  MIC: 8 µg/mL (≈ 35.4 µM)
[16]
  MIC: 16 µg/mL (≈ 70.7 µM)
[17]
  MIC: 16 µg/mL (≈ 70.7 µM)
[18]
  MIC: 16 µg/mL (≈ 70.7 µM)
[19]; Enterobacter cloacae, A9656, Enterobacter cloacae A9656
  MIC: 16 µg/mL (≈ 70.7 µM)
[20]
  MIC: > 63 µg/mL
[21]; Pseudomonas aeruginosa, A21213, Pseudomonas aeruginosa A21213
  MIC: > 63 µg/mL
[22]; A21203, Proteus rettgeri A21203
  MIC: 8 µg/mL (≈ 35.4 µM)
[32]
  MIC: 16 µg/mL (≈ 70.7 µM)
